Reference: patent publication US20240034736A1, “HSD17B13 INHIBITORS AND USES THEREOF” (FL2022-001, Inc., priority 2020, published 2024)

Biological target: Recombinant human HSD17B13 enzyme (Homo sapiens (Human), UniProt Q7Z5P4)
Experiment: HSD17b13 NAD(P)H-Glo Biochemical Assay
Conditions: for IC50: 50 uM estradiol, 1 mM NAD+, read-out: HSD17β13 IC50
In short: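 Recombinant human HSD17B13 was pre-incubated with inhibitor for 20 min at RT in 20 mM Tris pH 7.4 with 0.002% Tween-20 and 0.02% BSA. Reaction then ran with 50 uM estradiol and 1 mM NAD+ (final) for 3 h at 37° C. NADH formed was detected by NAD(P)H-Glo luminescence after 1 h at RT.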

Recombinant human HSD17B13 enzyme, sequence (Q7Z5P4 20-300): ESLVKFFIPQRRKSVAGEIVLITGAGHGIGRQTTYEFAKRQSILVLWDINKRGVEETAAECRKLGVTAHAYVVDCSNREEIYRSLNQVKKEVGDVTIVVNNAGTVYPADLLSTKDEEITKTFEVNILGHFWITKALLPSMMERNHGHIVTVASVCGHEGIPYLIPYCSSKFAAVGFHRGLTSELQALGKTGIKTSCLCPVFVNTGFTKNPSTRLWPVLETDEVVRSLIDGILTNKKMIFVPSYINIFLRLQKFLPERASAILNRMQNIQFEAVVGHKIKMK

| IC50 [µM] | inhibition at 30 µM (read-out: HSD17β13 inhibition at 30 uM) [%] | Structure (SMILES) |
| --- | --- | --- |
| 0.1 to 1 | – | Cc1nn(-c2cc(C(F)(F)F)c(F)c(O)c2F)c2cnc(N3CCC(OCC4CC4)CC3)cc12 [Compound 19.59, 3-(5-(4-(Cyclopropylmethoxy)piperidin-1-yl)-3-methyl-1H-pyrazolo[3,4-c]pyridine-1-yl)-2,6-difluoro-5-(trifluoromethyl)phenol] |
| 0.1 to 1 | – | Cc1nn(-c2cc(C(F)(F)F)c(F)c(O)c2F)c2cnc(N3CCC(OCCN(C)C)CC3)cc12 [Compound 19.60, 3-(5-(4-(2-(Dimethylamino)ethoxy)piperidin-1-yl)-3-methyl-1H-pyrazolo[3,4-c]pyridine-1-yl)-2,6-difluoro-5-(trifluoromethyl)phenol] |
| – | 55 | Cc1nn(-c2cc(O)ccc2C#N)c2cnc(N(C)C3CCOCC3)cc12 [Compound 19.61, 4-Hydroxy-2-(3-methyl-5-(methyl(tetrahydro-2H-pyran-4-yl)amino)-1H-pyrazolo[3,4-c]pyridin-1-yl)benzonitrile] |
| 0.1 to 1 | – | Cc1nn(-c2cc(O)c(F)cc2C#N)c2cnc(N(C)C3CCOCC3)cc12 [Compound 19.62, 5-Fluoro-4-hydroxy-2-(3-methyl-5-(methyl(tetrahydro-2H-pyran-4-yl)amino)-1H-pyrazolo[3,4-c]pyridin-1-yl)benzonitrile] |
| 0.1 to 1 | – | Cc1nn(-c2cc(C(F)(F)F)c(F)c(O)c2F)c2cnc(N3CCN(c4ccccc4)CC3)cc12 [Compound 19.63, 2,6-Difluoro-3-(3-methyl-5-(4-phenylpiperazin-1-yl)-1H-pyrazolo[3,4-c]pyridin-1-yl)-5-(trifluoromethyl)phenol] |
| 0.1 to 1 | – | Cc1nn(-c2cc(C(F)(F)F)c(F)c(O)c2F)c2cnc(N3CCN(c4cnn(C)c4)CC3)cc12 [Compound 19.64, 2,6-Difluoro-3-(3-methyl-5-(4-(1-methyl-1H-pyrazol-4-yl)piperazin-1-yl)-1H-pyrazolo[3,4-c]pyridin-1-yl)-5-(trifluoromethyl)phenol] |
| < 0.1 | – | Cc1nn(-c2cc(C(F)(F)F)c(F)c(O)c2F)c2cnc(N3CCOCC34CCC4)cc12 [Compound 19.65, 2,6-Difluoro-3-(3-methyl-5-(8-oxa-5-azaspiro[3.5]nonan-5-yl)-1H-pyrazolo[3,4-c]pyridin-1-yl)-5-(trifluoromethyl)phenol] |
| < 0.1 | – | Cc1nn(-c2cc(C(F)(F)F)c(F)c(O)c2F)c2cc(F)c(N(C)C3CCOCC3)nc12 [Compound 19.66, 2,6-Difluoro-3-(6-fluoro-3-methyl-5-(methyl(tetrahydro-2H-pyran-4-yl)amino)-1H-pyrazolo[4,3-b]pyridin-1-yl)-5-(trifluoromethyl)phenol] |
| < 0.1 | – | Cc1nn(-c2cc(C(F)(F)F)c(F)c(O)c2F)c2cc(F)c(N3CCOCC34CC4)cc12 [Compound 19.67, 2,6-Difluoro-3-(6-fluoro-3-methyl-5-(7-oxa-4-azaspiro[2.5]octan-4-yl)-1H-indazol-1-yl)-5-(trifluoromethyl)phenol] |
| < 0.1 | – | Cc1nn(-c2cc(C(F)(F)F)c(F)c(O)c2F)c2cc(F)c(N(C)C3CCOCC3)cc12 [Compound 19.68, 2,6-Difluoro-3-(6-fluoro-3-methyl-5-(methyl(tetrahydro-2H-pyran-4-yl)amino)-1H-indazol-1-yl)-5-(trifluoromethyl)phenol] |
| < 0.1 | – | Cc1nn(-c2cc(C(F)(F)F)c(F)c(O)c2F)c2ccc(N(C)C3CCOCC3)cc12 [Compound 19.69, 2,6-Difluoro-3-(3-methyl-5-(methyl(tetrahydro-2H-pyran-4-yl)amino)-1H-indazol-1-yl)-5-(trifluoromethyl)phenol] |
| < 0.1 | – | CN(c1ccc2c(cnn2-c2cc(C(F)(F)F)c(F)c(O)c2F)c1)C1CCOCC1 [Compound 19.70, 2,6-Difluoro-3-(5-(methyl(tetrahydro-2H-pyran-4-yl)amino)-1H-indazol-1-yl)-5-(trifluoromethyl)phenol] |
| 0.1 to 1 | – | CN(c1ccc2c(c1)c(C(F)(F)F)nn2-c1cc(C(F)(F)F)c(F)c(O)c1F)C1CCOCC1 [Compound 19.71, 2,6-Difluoro-3-(5-(methyl(tetrahydro-2H-pyran-4-yl)amino)-3-(trifluoromethyl)-1H-indazol-1-yl)-5-(trifluoromethyl)phenol] |
| 0.1 to 1 | – | COc1nn(-c2cc(C(F)(F)F)c(F)c(O)c2F)c2ccc(N(C)C3CCOCC3)cc12 [Compound 19.72, 2,6-Difluoro-3-(3-methoxy-5-(methyl(tetrahydro-2H-pyran-4-yl)amino)-1H-indazol-1-yl)-5-(trifluoromethyl)phenol] |
| 0.1 to 1 | – | CCc1nn(-c2cc(C(F)(F)F)c(F)c(O)c2F)c2ccc(N(C)C3CCOCC3)cc12 [Compound 19.73, 3-(3-Ethyl-5-(methyl(tetrahydro-2H-pyran-4-yl)amino)-1H-indazol-1-yl)-2,6-difluoro-5-(trifluoromethyl)phenol] |
| 0.1 to 1 | – | CC(C)c1nn(-c2cc(C(F)(F)F)c(F)c(O)c2F)c2ccc(N(C)C3CCOCC3)cc12 [Compound 19.74, 2,6-Difluoro-3-(3-isopropyl-5-(methyl(tetrahydro-2H-pyran-4-yl)amino)-1H-indazol-1-yl)-5-(trifluoromethyl)phenol] |

| IC50 [µM] | inhibition at 30 µM (read-out: HSD17β13 inhibition at 30 uM) [%] | Structure (SMILES) |
| --- | --- | --- |
| 0.1 to 1 | – | CN(c1ccc2c(c1)c(C1CC1)nn2-c1cc(C(F)(F)F)c(F)c(O)c1F)C1CCOCC1 [Compound 19.75, 3-(3-Cyclopropyl-5-(methyl(tetrahydro-2H-pyran-4-yl)amino)-1H-indazol-1-yl)-2,6-difluoro-5-(trifluoromethyl)phenol] |
| 0.1 to 1 | – | CN(C)c1nn(-c2cc(C(F)(F)F)c(F)c(O)c2F)c2ccc(N(C)C3CCOCC3)cc12 [Compound 19.76, 3-(3-(Dimethylamino)-5-(methyl(tetrahydro-2H-pyran-4-yl)amino)-1H-indazol-1-yl)-2,6-difluoro-5-(trifluoromethyl)phenol] |
| < 0.1 | – | COC1CCN(c2ncc3c(n2)c(C)nn3-c2cc(C(F)(F)F)c(F)c(O)c2F)CC1 [Compound 19.77, 2,6-Difluoro-3-(5-(4-methoxypiperidin-1-yl)-3-methyl-1H-pyrazolo[4,3-d]pyrimidin-1-yl)-5-(trifluoromethyl)phenol] |
| < 0.1 | – | Cc1nn(-c2cc(C(F)(F)F)c(F)c(O)c2F)c2cnc(N(C)C3CCOCC3)nc12 [Compound 19.78, 2,6-Difluoro-3-(3-methyl-5-(methyl(tetrahydro-2H-pyran-4-yl)amino)-1H-pyrazolo[4,3-d]pyrimidin-1-yl)-5-(trifluoromethyl)phenol] |
| < 0.1 | – | Cc1nn(-c2cc(C(F)(F)F)c(F)c(O)c2F)c2cnc(N3CC(C)(C)OC(C)(C)C3)nc12 [Compound 19.79, 2,6-Difluoro-3-(3-methyl-5-(2,2,6,6-tetramethylmorpholino)-1H-pyrazolo[4,3-d]pyrimidin-1-yl)-5-(trifluoromethyl)phenol] |
| 0.1 to 1 | – | Oc1c(F)c(-n2ncc3nc(N4CCOCC45CC5)ncc32)cc(C(F)(F)F)c1F [Compound 19.80, 3-(5-(7-Oxa-4-azaspiro[2.5]octan-4-yl)-1H-pyrazolo[4,3-d]pyrimidin-1-yl)-2,6-difluoro-5-(trifluoromethyl)phenol] |
| < 0.1 | – | Cc1nn(-c2cc(C(F)(F)F)c(F)c(O)c2F)c2cnc(N3CCOC4(CC4)C3)nc12 [Compound 19.81, 2,6-Difluoro-3-(3-methyl-5-(4-oxa-7-azaspiro[2.5]octan-7-yl)-1H-pyrazolo[4,3-d]pyrimidin-1-yl)-5-(trifluoromethyl)phenol] |
| < 0.1 | – | Cc1nn(-c2cc(C(F)(F)F)c(F)c(O)c2F)c2cnc(N3CCOC4(CCC4)C3)nc12 [Compound 19.82, 2,6-Difluoro-3-(3-methyl-5-(5-oxa-8-azaspiro[3.5]nonan-8-yl)-1H-pyrazolo[4,3-d]pyrimidin-1-yl)-5-(trifluoromethyl)phenol] |
| < 0.1 | – | Cc1nn(-c2cc(C(F)(F)F)c(F)c(O)c2F)c2cnc(N3CCN(S(=O)(=O)c4ccccc4)CC34CC4)cc12 [Compound 19.83, 2,6-Difluoro-3-(3-methyl-5-(7-(phenylsulfonyl)-4,7-diazaspiro[2.5]octan-4-yl)-1H-pyrazolo[3,4-c]pyridin-1-yl)-5-(trifluoromethyl)phenol] |
| < 0.1 | – | Cc1nn(-c2cc(C(F)(F)F)c(F)c(O)c2F)c2cnc(N3CCN(S(=O)(=O)c4cnn(C)c4)CC34CC4)cc12 [Compound 19.84, 2,6-Difluoro-3-(3-methyl-5-(7-((1-methyl-1H-pyrazol-4-yl)sulfonyl)-4,7-diazaspiro[2.5]octan-4-yl)-1H-pyrazolo[3,4-c]pyridin-1-yl)-5-(trifluoromethyl)phenol] |
| < 0.1 | – | Cc1nn(-c2cc(O)c(F)c(C(F)(F)F)c2)c2cnc(N3CCOCC34CC4)cc12 [Compound 19.85, 2-Fluoro-5-(3-methyl-5-(7-oxa-4-azaspiro[2.5]octan-4-yl)-1H-pyrazolo[3,4-c]pyridin-1-yl)-3-(trifluoromethyl)phenol] |
| 0.1 to 1 | – | CC(=O)c1cc(-n2nc(C)c3cc(N4CCOCC45CC5)ncc32)cc(O)c1F [Compound 19.86, 1-(2-Fluoro-3-hydroxy-5-(3-methyl-5-(7-oxa-4-azaspiro[2.5]octan-4-yl)-1H-pyrazolo[3,4-c]pyridin-1-yl)phenyl)ethanone] |
| 0.1 to 1 | – | CN(c1ccc2c(c1)c(Cl)nn2-c1cc(C(F)(F)F)c(F)c(O)c1F)C1CCOCC1 [Compound 19.87, 3-(3-Chloro-5-(methyl(tetrahydro-2H-pyran-4-yl)amino)-1H-indazol-1-yl)-2,6-difluoro-5-(trifluoromethyl)phenol] |
| 0.1 to 1 | – | COC(=O)c1nn(-c2cc(C(F)(F)F)c(F)c(O)c2F)c2ccc(N(C)C3CCOCC3)cc12 [Compound 19.88, Methyl 1-(2,4-difluoro-3-hydroxy-5-(trifluoromethyl)phenyl)-5-(methyl(tetrahydro-2H-pyran-4-yl)amino)-1H-indazole-3-carboxylate] |
| 1 to 30 | – | CN(c1ccc2c(c1)c(C(=O)O)nn2-c1cc(C(F)(F)F)c(F)c(O)c1F)C1CCOCC1 [Compound 19.89, 1-(2,4-Difluoro-3-hydroxy-5-(trifluoromethyl)phenyl)-5-(methyl(tetrahydro-2H-pyran-4-yl)amino)-1H-indazole-3-carboxylic Acid] |
